# In paper PMC8482815, “Targeting Host Glycolysis as a Strategy for Antimalarial Development” (Frontiers in Cellular and Infection Microbiology, 2021):
# Several values for one entry are separate records, joined by “and”; a condition that tells them apart may be missing. Identical values can stand only once.
# System: human erythrocytes
# Assay: Untargeted metabolomics and 13C-glucose tracing of enolase inhibitor treated erythrocytes
# Assay type: cell-based
# Conditions: 0.5h
# Protocol: Freshly collected erythrocytes were washed, resuspended to 10% hematocrit in buffer [25mM HEPES (pH 7.4), 120mM NaCl, 5.4mM KCl, 1.8mM CaCl2, and 1mM NaH2PO4], incubated for 1 hour at 37°C, then centrifuged at 2000xg for 5 minutes at 4°C, resuspended in fresh wash buffer to 30-40% hematocrit, and split into 210µL aliquots of packed erythrocytes. […] All samples were incubated at 37°C shaking at 500 RPM. Triplicate samples of supernatants and packed erythrocytes were collected at 0, 0.5, 1, and 6-hour intervals and snap-frozen in liquid N2.
# RBC and media samples were extracted at 1:10 and 1:20 dilutions, respectively, in 5:3:2 MeOH : MeCN:H2O v/v/v, and supernatants analyzed on a Thermo Vanquish UHPLC coupled to a Thermo Q Exactive mass spectrometer, as extensively described ([Nemkov et al., 2015]; [Nemkov et al., 2017]). The extraction buffer was supplemented with 40uM 3-^13C lactate to allow absolute quantification of lactate isotopologues, including lactate generated via glycolysis ([1,2,3-^13C3] enriched) vs. the pentose phosphate pathway ([2,3-^13C2] enriched), as described ([Reisz et al., 2016]). Metabolite assignments, peak area integration and isotopologues distributions were determined using Maven (Princeton University) ([Nemkov et al., 2015]; [Nemkov et al., 2017]).
# Data were auto-scaled and normalized to zero-hour time points. Metabolites were removed from the dataset if greater than 50% of the samples contained missing values or the relative standard deviation among replicates exceeded 25%. Additionally, data was filtered using the interquartile range to reduce near-constant values from the experiment by 5%.
# A principal component analysis of preprocessed data was plotted with the 95% confidence interval minimum volume enclosing ellipsoid for each respective group (MetaboAnalyst, cluster, plotly). A two-way repeated measures analysis of variance (ANOVA) was performed with multiple comparisons corrected for using a false discovery rate p-value cutoff of 0.05. Metabolite-Pathway analysis was performed using the R package of MetaboAnalyst, as previously described ([Xia and Wishart, 2010]). Metabolite-Protein nodal analysis was performed using omicsnet.ca and as previously described ([Zhou and Xia, 2018]).
# [1] = treated erythrocytes, one value per replicate sample, polarity +
# [2] = treated erythrocytes, one value per replicate sample, polarity -
# [3] = treated erythrocytes, replicate samples
smiles,measurement,setting,value
CC(C)(C)C(=O)OCOP(=O)(OCOC(=O)C(C)(C)C)C1CC(O)N(O)C1=O (stereo not shown) [POMSF],AMP level (metabolomics signal),replicate samples,2.22E+06 and 1.69E+06 and 1.24E+06
same,ATP level (metabolomics signal),replicate samples,6.37E+03 and 8.43E+03 and 5.73E+03
same,Adenine level (metabolomics signal),replicate samples,1.92E+05 and 1.77E+05 and 1.67E+05
same,Cytosine level (metabolomics signal),replicate samples,5.62E+05 and 5.81E+05 and 5.75E+05
same,L-alanine level (metabolomics signal),replicate samples,8.49E+06 and 9.99E+06 and 1.01E+07
same,L-arginine level (metabolomics signal),replicate samples,8.18E+06 and 5.94E+06 and 8.91E+06
same,L-asparagine level (metabolomics signal),replicate samples,3.70E+06 and 4.01E+06 and 4.49E+06
same,L-aspartate level (metabolomics signal),replicate samples,3.38E+07 and 3.70E+07 and 4.18E+07
same,L-cysteine level (metabolomics signal),replicate samples,5.61E+05 and 2.55E+05 and 1.58E+05
same,L-glutamate level (metabolomics signal),replicate samples,3.26E+07 and 3.43E+07 and 3.68E+07
same,L-glutamine level (metabolomics signal),replicate samples,3.77E+07 and 4.04E+07 and 5.11E+07
same,L-histidine level (metabolomics signal),replicate samples,1.39E+06 and 1.38E+06 and 1.35E+06
same,L-isoleucine level (metabolomics signal),replicate samples,1.79E+07 and 1.67E+07 and 1.69E+07
same,L-leucine level (metabolomics signal),replicate samples,1.70E+08 and 1.83E+08 and 2.03E+08
same,L-lysine level (metabolomics signal),replicate samples,2.70E+06 and 2.39E+06 and 2.59E+06
same,L-methionine level (metabolomics signal),replicate samples,1.52E+07 and 1.66E+07 and 1.85E+07
same,L-phenylalanine level (metabolomics signal),replicate samples,8.08E+06 and 8.86E+06 and 1.12E+07
same,L-proline level (metabolomics signal),replicate samples,4.22E+07 and 3.45E+07 and 3.96E+07
same,L-serine level (metabolomics signal),replicate samples,2.93E+06 and 2.66E+06 and 3.79E+06
same,L-threonine level (metabolomics signal),replicate samples,5.71E+06 and 5.05E+06 and 5.98E+06
same,L-tryptophan level (metabolomics signal),replicate samples,5.93E+06 and 3.78E+06 and 4.71E+06
same,L-tyrosine level (metabolomics signal),replicate samples,1.94E+07 and 2.09E+07 and 2.16E+07
same,L-valine level (metabolomics signal),replicate samples,1.34E+08 and 1.45E+08 and 1.42E+08
same,dCMP level (metabolomics signal),replicate samples,1.87E+04 and 1.84E+04 and 1.76E+04
same,dTMP level (metabolomics signal),replicate samples,1.29E+06 and 8.42E+05 and 1.18E+06
same,glycine level (metabolomics signal),replicate samples,1.56E+06 and 1.61E+06 and 1.75E+06
same,N-Acyl-D-aspartate (C06380) metabolite signal,[1],2.47E+05 and 3.01E+05 and 2.50E+05
same,Poly-gamma-D-glutamate (C05723) metabolite signal,[1],2.49E+07 and 2.77E+07 and 3.43E+07
same,D-Ribitol 5-phosphate (C01068) metabolite signal,[2],1.89E+04 and 2.70E+04 and 1.78E+04
same,"D-glucono-1,5-lactone (C00198) metabolite signal",[2],5.20E+05 and 6.45E+05 and 5.70E+05
same,L-Noradrenaline (C00547) metabolite signal,[2],5.30E+04 and 6.26E+04 and 5.84E+04
same,Oxalosuccinate (C05379) metabolite signal,[2],1.60E+05 and 1.51E+05 and 1.30E+05
same,Pyridoxamine (C00534) metabolite signal,[2],4.35E+04 and 3.15E+04 and 3.96E+04
same,Thioredoxin disulfide (C00343) metabolite signal,[2],4.45E+04 and 2.53E+04 and 3.52E+04
same,1-4-beta-D-Xylan (metabolite signal),[3],2.42E+05 and 2.55E+05 and 2.51E+05
same,2-Hydroxyglutarate/Citramalate (C02630) metabolite signal,[3],8.78E+04 and 9.72E+04 and 1.18E+05
same,5-6-Dihydrothymine (C00906) metabolite signal,[3],3.10E+05 and 2.80E+05 and 2.87E+05
same,5-10-Methenyltetrahydrofolate (metabolite signal),[3],3.54E+05 and 4.17E+05 and 3.24E+05
same,5-Hydroxyisourate (C11821) metabolite signal,[3],5.17E+06 and 5.16E+06 and 5.68E+06
same,5-L-Glutamyl-taurine (metabolite signal),[3],1.45E+05 and 1.54E+05 and 1.36E+05
same,5-Oxoproline (metabolite signal),[3],8.54E+05 and 9.65E+05 and 9.67E+05
same,(S)(+)-Allantoin (C02350) metabolite signal,[3],4.35E+04 and 3.58E+04 and 0.00E+00
same,Allantoate (C00499) metabolite signal,[3],2.71E+05 and 2.04E+05 and 2.56E+05
same,Ascorbate (metabolite signal),[3],9.30E+04 and 6.85E+04 and 1.08E+05
same,CMP-N-acetylneuraminate (metabolite signal),[3],1.38E+04 and 2.26E+04 and 3.45E+04
same,Carnosine (metabolite signal),[3],2.64E+05 and 2.93E+05 and 2.91E+05
same,Citrate (C00158) metabolite signal,[3],2.63E+04 and 3.23E+04 and 3.56E+04
same,Creatine (metabolite signal),[3],2.99E+08 and 3.28E+08 and 3.02E+08
same,Creatinine (metabolite signal),[3],3.46E+06 and 3.25E+06 and 2.95E+06
same,Cys-Gly (metabolite signal),[3],2.55E+06 and 2.28E+06 and 2.13E+06
same,D-Glucosamine (metabolite signal),[3],1.73E+05 and 2.02E+05 and 1.88E+05
same,D-Glucose (C00031) metabolite signal,[3],6.07E+06 and 5.64E+06 and 6.25E+06
same,D-Ribose (C00121) metabolite signal,[3],1.75E+05 and 2.10E+05 and 1.84E+05
same,Dehydroascorbate (metabolite signal),[3],1.78E+04 and 9.28E+03 and 1.77E+04
same,Dihydrofolate (metabolite signal),[3],1.24E+06 and 6.72E+05 and 1.27E+06
same,Dimethylglycine (metabolite signal),[3],1.14E+06 and 1.17E+06 and 1.06E+06
same,Diphosphate (C00013) metabolite signal,[3],3.26E+03 and 1.34E+03 and 1.52E+03
same,Fumarate (C00122) metabolite signal,[3],1.08E+05 and 1.33E+05 and 1.27E+05
same,Glutathione (C00051) metabolite signal,[3],1.64E+08 and 1.52E+08 and 1.45E+08
same,Glutathione disulfide (metabolite signal),[3],1.36E+05 and 2.52E+05 and 3.91E+05
same,Hypoxanthine (C00262) metabolite signal,[3],6.53E+04 and 4.36E+04 and 3.66E+04
same,IMP (C00130) metabolite signal,[3],9.13E+04 and 0.00E+00 and 4.11E+04
same,Inosine (C00294) metabolite signal,[3],9.07E+04 and 1.09E+05 and 1.15E+05
same,L-Citrulline (metabolite signal),[3],3.18E+06 and 3.52E+06 and 3.48E+06
same,L-Homoserine (metabolite signal),[3],2.14E+05 and 2.01E+05 and 2.23E+05
same,Lactate (C01432) metabolite signal,[3],9.04E+06 and 8.73E+06 and 8.57E+06
same,Malate (C00149) metabolite signal,[3],1.84E+05 and 2.15E+05 and 2.30E+05
same,Mannitol (C00392) metabolite signal,[3],1.48E+05 and 1.43E+05 and 1.44E+05
same,N-Acetylneuraminate (metabolite signal),[3],2.84E+04 and 2.76E+04 and 2.63E+04
same,N-Glycoloyl-neuraminate (metabolite signal),[3],1.80E+05 and 1.43E+05 and 1.72E+05
same,NAD+ (C00003) metabolite signal,[3],7.76E+04 and 1.99E+05 and 4.14E+05
same,Nicotinamide (C00153) metabolite signal,[3],3.69E+07 and 3.94E+07 and 3.72E+07
same,Ornithine (metabolite signal),[3],2.34E+06 (2×) and 2.32E+06
same,Oxaloacetate (C00036) metabolite signal,[3],4.10E+04 and 3.82E+04 and 3.53E+04
same,Phosphoserine (metabolite signal),[3],5.43E+04 and 2.60E+05 and 7.13E+04
same,Putrescine (metabolite signal),[3],8.30E+04 and 7.12E+04 and 6.80E+04
same,Pyridoxal (C00250) metabolite signal,[3],7.95E+04 and 8.76E+04 and 8.42E+04
same,Pyruvate (C00022) metabolite signal,[3],6.67E+05 and 7.32E+05 and 6.75E+05
same,S-Glutathionyl-L-cysteine (metabolite signal),[3],6.44E+04 and 8.58E+04 and 2.21E+05
same,Sedoheptulose 1-phosphate (C06222) metabolite signal,[3],1.56E+04 and 1.68E+04 and 1.80E+04
same,Spermidine (metabolite signal),[3],9.65E+06 and 9.19E+06 and 9.18E+06
same,Spermine (metabolite signal),[3],9.74E+06 and 8.90E+06 and 1.00E+07
same,Succinate (C00042) metabolite signal,[3],9.57E+04 and 9.51E+04 and 9.45E+04
same,Thymidine (C00214) metabolite signal,[3],1.34E+04 and 1.17E+04 and 1.87E+04
same,UDP (C00015) metabolite signal,[3],2.09E+05 and 1.18E+05 and 1.38E+05
same,UDP-N-acetyl-D-glucosamine (metabolite signal),[3],1.55E+04 and 2.01E+04 and 2.26E+04
same,UDP-glucose (C00029) metabolite signal,[3],3.09E+04 and 3.55E+04 and 4.15E+04
same,Urate (C00366) metabolite signal,[3],3.51E+04 and 2.72E+04 and 2.68E+04
same,Xanthine (C00385) metabolite signal,[3],3.66E+05 and 3.57E+05 and 3.29E+05
same,alpha-D-Glucosamine 1-phosphate (metabolite signal),[3],2.09E+06 and 2.40E+06 and 2.18E+06
same,alpha-D-Ribose 1-phosphate (C00620) metabolite signal,[3],1.08E+05 and 8.84E+04 and 1.07E+05
same,gamma-Glutamyl-gamma-aminobutyrate (metabolite signal),[3],9.93E+04 and 1.32E+05 and 1.00E+05
same,gamma-L-Glutamyl-D-alanine (metabolite signal),[3],3.99E+04 and 3.09E+04 and 3.31E+04
same,gamma-L-Glutamyl-L-cysteine (metabolite signal),[3],1.39E+04 and 2.39E+04 and 2.36E+04
